{
  "source": "patent US20140072654A1",
  "about": "“CANCER WITH METABOLIC THERAPY AND HYPERBARIC OXYGEN” (priority 2011, published 2014)",
  "key": {"[1]": {"conditions": "rat; cited from earlier work"}, "[2]": {"test_system": "primary cultured cortex neurons", "experiment": "Superoxide anion production (DHE fluorescence) in neurons treated with HBO or amyloid beta", "assay_type": "cell-based, rat", "conditions": "60 min, 5 ATA O2; 2 mM ketones", "experimental": "Effect of ketones on superoxide production in neurons treated with Aβ1-42 and HBO and cell viability of U87MG cells was examined Primary dissociated neuronal cultures of the hippocampus and cortex were acquired from Brain Bits LLC, to increase time efficiency and to minimize cost associated with purchasing rats. Hippocampal or cortical tissue from Brain Bits (shipped in Hibernate®) were enzymatically and mechanically dissociated via pipette trituration. Neurons were plated on 12 mm glass coverslips and allowed to adhere for 1-2 hrs in an incubator maintained at 9-20% O2 in a humidified atmosphere. Cultures were maintained in media purchased from Brain Bits, including NbActiv1® and NbActive4. […]\nPresence of intracellular ROS is measured by detection of superoxide anion using Dihydroethidium (DHE). […] Cells were washed in PBS and then visualized using fluorescent microscopy or quantified using spectrophotometry. […]\nAcquisition and statistical analyses of fluorescence imaging was performed as previously reported (D'Agostino, 2007; Filosa, 2002; Ritucci, 1996; Ritucci, 1997; Ritucci, 1998; Crowe, 1995; Weinlich, 1998; Inglefield, 1998; Inglefield, 1999). Average fluorescence intensity (FI) for each cell is calculated as the percent change in fluorescence from baseline, […], where FIb is the basal fluorescence defined by the two images preceding the experimental recordings. […]"}, "VM-M3 cells": {"test_system": "VM-M3 cells", "assay_type": "cell-based, mouse", "conditions": "5 mM βHB, 24, 48, 72 and 96 hrs", "experimental": "Cell proliferation rate was measured using the MTT Cell Proliferation Assay (ATCC). Cells were plated onto a 96 well plate and grown to desired density. […] In proliferating cells, MTT is reduced to purple formazan which absorbs light at 490-520 nm and whose excitation can be measured using standard fluorescent microscopy and spectrophotometry. Rapidly dividing cells reduce MTT at very high rates, indicating their rate of proliferation. Cell proliferation can also be measured with Ki67 immunohistochemistry staining, cell viability can also be evaluated with the LDH Cytotoxicity Assay (Cayman Chemical).\nCell viability was measured using the LIVE/DEAD Viability/Cytotoxicity Kit for Mammalian Cells (Invitrogen). Cells were grown to desired density on a coverslip and washed with Dulbecco's phosphate-buffered saline (D-PBS). […] The two-color fluorescence assay contains two probes which specifically label live or dead cells. […] Calcein produces an intense green fluorescence with an excitation/emission of 495/515 nm. Ethidium homodimer-1 (Ethd-1) enters cells with damaged membranes and binds to nucleic acid. Ethd-1 bound to DNA produces a red fluorescence in dead cells with an excitation/emission of 495/635 nm. Live and dead cells were identified and quantified using standard fluorescent microscopy. […]"}, "[3]": {"conditions": "in vivo; cited from earlier work"}},
  "data": [
    {"compound": "CC(C)=O", "note": "[Acetone]", "values": [
      {"measurement": "LD50", "setting": "[1]", "value": "> 5000", "unit": "mg/kg"}
    ]},
    {"compound": "Cc1ccccc1NC(=N)Nc1ccccc1C", "note": "[DTG, 1,3,-di-o-tolylguanidine]", "values": [
      {"measurement": "effect on superoxide anion production under hyperoxia", "setting": "[2]", "value": "prevented the hyperoxia-induced increase in superoxide production"}
    ]},
    {"compound": "CC(O)CC(=O)O", "note": "(stereo not drawn) [βHB, β-hydroxybutyrate]", "values": [
      {"measurement": "proliferation", "setting": "VM-M3 cells", "value": "significantly decreased"}
    ]},
    {"compound": "MCT oil", "values": [
      {"measurement": "levels of ketones produced by supplementation", "setting": "[3]", "value": "< 500", "unit": "µM"}
    ]}
  ]
}
